Data reported in patent US8748618B2, “Inhibitors of inv(16) leukemia” (University of Virginia Patent Foundation, priority 2009, dated 2014).
One block for each compound: values may come before it.

Legend:
[1] = biological target: CBFβ-SMMHC:RD (CBFβ-SMMHC binding to the Runt domain); experiment: FRET assay, inhibition of CBFβ-SMMHC binding to the Runt domain; conditions: for IC50 FRET (CBFβ-SMMHC:RD, 20 nM both): 20 nM both proteins
Method: FRET assay. […] We fused the green fluorescent protein derivative Cerulean to the N-terminus of the Runt domain and the green fluorescent protein derivative Venus to the N-terminus of CBFβ-SMMHC (as well as to CBFβ (Gorczynski, Grembecka et al. 2007)). The ratio of the emission intensities at 525 nm and 474 nm, measured after excitation at 433 nm, was used as the readout in this assay. The dynamic range for the FRET assay was determined by adding a 30-fold excess of untagged CBFβ-SMMHC (or CBFβ in the case of CBFβ—Runt domain binding) to the assay and the associated change in the FRET ratio was defined as 100% inhibition.
As shown by Shoichet and co-workers (Seidler, McGovern et al. 2003), a primary source of false positives in any screen is micelle formation. […] A substantial loss of activity in the presence of detergent is a hallmark of inhibition by micelle formation and such compounds are thus identified as false positives. In addition, we are also incubating compound with protein and checking by mass spectroscopy to ensure that positive hits are not acting by covalent addition to either of the proteins.

CBFβ = CBFβ (Homo sapiens (Human), UniProt Q13951); experiment: NMR chemical shift perturbation with CBFβ; type: binding; conditions: for NMR with CBFβ + 250 uM compound, CSP G 112: residue G 112; for NMR with CBFβ + 250 uM compound, CSP K 98: residue K 98; for Precipitation in the NMR sample: 250 uM compound with CBFβ
From the text: Validation of binding of a small molecule inhibitor to its protein target is an essential step in developing potent inhibitors. This can be readily achieved using either NMR spectroscopy or X-ray crystallography. In the case of X-ray crystallography, this is achieved by co-crystallization of the protein with the ligand and determination of the structure. In the case of NMR spectroscopy, the structure of a compound-protein complex can also be determined. In addition, chemical shift perturbations of the protein NMR spectrum (typically 2D ^15N—^1H HSQC or ^13C—^1H HSQC) in the presence of compounds can both confirm binding to the target and localize the binding site on a protein (Pellecchia, Sem et al. 2002; Salvatella and Giralt 2003). The latter method is a quick and efficient method to confirm binding to the protein and to determine the binding site when appropriate labeled samples are available and the resonance assignments are known. Such data can also be used to dock the small molecule to the protein. Because the structure of CBFβ has been solved by NMR (Huang, Peng et al. 1999), resonance assignments are available and we have employed this approach as an additional screen to ensure the validity of the inhibitors we are developing and to determine the binding site (see below).

RS4; 11 cells = experiment: MTT assay, growth of RS4;11 cells; type: cell-based; conditions: MTT, FIG. 4B
From the text: (§1) We have tested several of the compounds we have synthesized for their effects on ME-1 cells, a leukemia cell line harboring the inv(16) (Yanagisawa, Horiuchi et al. 1991). […] AI-4-57 has also been tested against the Kasumi-1, Jurkat, and RS4; 11 leukemia cell lines (FIG. 4.B). […] We have also examined effects on apoptosis using flow cytometry to measure Annexin V/PI (propidium iodide) positivity. […] The selectivity for specific cell lines and the correlation of activity in the FRET assay with effects on inv(16) cells all support the hypothesis that the compounds are hitting the desired target.
(§2) Below are two exemplary dimeric compound formulas, shown here without the possible substituents indicated elsewhere herein.

Jurkat cells = experiment: MTT assay, growth of Jurkat cells; type: cell-based; conditions: MTT, FIG. 4B
From the text: as §1, §2

ME-1 cells [2] = experiment: MTT viability assay, growth of ME-1 cells; type: cell-based, human; conditions: MTT, FIG. 4A
From the text: as §1
The dimer with a 7 atom linker (AI-4-62) has been tested for effects on the growth of the ME-1 cell line (see FIG. 7), a leukemia cell line with the inv(16).

Kasumi-1 cells = experiment: MTT assay, growth of Kasumi-1 cells; type: cell-based; conditions: MTT, FIG. 4B
From the text: as §1, §2

ME-1 cells [3] = experiment: Apoptosis by flow cytometry, Annexin V/PI positivity; type: cell-based, human; conditions: FIG. 4C
From the text: as §1

Chain of CBFβ (Q13951 1-141, species assumed): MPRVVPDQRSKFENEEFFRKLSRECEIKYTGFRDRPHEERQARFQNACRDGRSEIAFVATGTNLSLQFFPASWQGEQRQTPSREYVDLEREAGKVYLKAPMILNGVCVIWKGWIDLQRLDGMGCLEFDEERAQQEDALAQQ

IC50 FRET (CBFβ-SMMHC:RD, 20 nM both) ([1]; Table 1 monomers): Interference with assay | NMR with CBFβ + 250 uM compound, CSP G 112 (CBFβ; 250 uM compound): 0.012 ppm | NMR with CBFβ + 250 uM compound, CSP K 98 (CBFβ; 250 uM compound): 0.006 ppm
Structure (SMILES): FC(F)(F)Oc1cc2nc(-c3ccccn3)[nH]c2cc1N1CCCC1 [AI-10-97]

Δ167 [1]: Δ167 = 18%
Structure (SMILES): COc1ccc2[nH]c(-c3ncccc3C(F)(F)F)nc2c1 [AI-10-69]

NMR with CBFβ + 250 uM compound, CSP G 112 (CBFβ; 250 uM compound): 0.037 ppm | NMR with CBFβ + 250 uM compound, CSP K 98 (CBFβ; 250 uM compound): 0.027 ppm
Structure (SMILES): CSc1ccc2[nH]c(-c3ccccn3)nc2c1 [AI-10-35]

Structure (SMILES): COc1ccc(-c2nc3cc(OC)ccc3[nH]2)c(O)c1 [LD-1-73]
Δ110 [1]: Δ110 = 30%

IC50 FRET (CBFβ-SMMHC:RD, 20 nM both) ([1]; Table 2 dimers): Interference with assay
Structure (SMILES): CN(C)c1ccc2[nH]c(-c3ccc(OCCOCCOc4ccc(-c5nc6cc(N(C)C)ccc6[nH]5)nc4)cn3)nc2c1 [AI-10-21]

Δ500 [1]: Δ500 = 50%
Structure (SMILES): FC(F)(F)Oc1ccc2[nH]c(-c3ncccc3C(F)(F)F)nc2c1 [AI-10-64]

NMR with CBFβ + 250 uM compound, CSP G 112/K 98 (in words) (CBFβ; 250 uM compound): No CSP
Structure (SMILES): FC(F)(F)Oc1cc(-c2cccnc2)c2[nH]c(-c3ccccn3)nc2c1 [AI-10-96]

Δ500 [1]: Δ500 = 61%
Structure (SMILES): Cc1cccnc1-c1nc2cc(OC(F)(F)F)ccc2[nH]1 [AI-10-63]

IC50 FRET (CBFβ-SMMHC:RD, 20 nM both) ([1]; Table 1 monomers): Interference with assay | NMR with CBFβ + 250 uM compound, CSP G 112 (CBFβ; 250 uM compound): 0.087 ppm | NMR with CBFβ + 250 uM compound, CSP K 98 (CBFβ; 250 uM compound): 0.039 ppm | NMR with CBFβ + 250 uM compound, CSP L 97 (CBFβ; 250 uM compound, residue L 97): 0.034 ppm
Structure (SMILES): c1ccc(-c2nc3cc(N4CCCC4)ccc3[nH]2)nc1 [AI-10-83]

NMR with CBFβ + 250 uM compound, CSP G 112/K 98 (in words) (CBFβ; 250 uM compound): No CSP
Structure (SMILES): c1ccc(-c2nc3cc(-n4ccnc4)ccc3[nH]2)nc1 [AI-10-88]

IC50 FRET (CBFβ-SMMHC:RD, 20 nM both) ([1]; Table 2 dimers): Interference with assay
Structure (SMILES): c1cc(-c2nc3cc(N4CCCC4)ccc3[nH]2)ncc1OCCOCCOc1ccc(-c2nc3cc(N4CCCC4)ccc3[nH]2)nc1 [AI-10-98]

Structure (SMILES): COc1ccc2[nH]c(-c3ccccn3)nc2c1 [AI-4-57]
Growth of RS4;11 cells (RS4; 11 cells): No effect on growth | Growth of Jurkat cells (Jurkat cells): No effect on growth | Growth of ME-1 cells (ME-1 cells [2]): effective inhibition of growth | Growth of Kasumi-1 cells (Kasumi-1 cells): modest effect | NMR with CBFβ + 250 uM compound, CSP G 112 (CBFβ; 250 uM compound): 0.039 ppm | NMR with CBFβ + 250 uM compound, CSP K 98 (CBFβ; 250 uM compound): 0.026 ppm

Structure (SMILES): CCOc1ccc2[nH]c(-c3ccccn3)nc2c1 [LD-1-29]
Growth of ME-1 cells (ME-1 cells [2]): effective inhibition of growth | NMR with CBFβ + 250 uM compound, CSP G 112 (CBFβ; 250 uM compound): 0.026 ppm | NMR with CBFβ + 250 uM compound, CSP K 98 (CBFβ; 250 uM compound): no change | Apoptosis (AnnexinV/PI) (ME-1 cells [3]; 40 μM): substantial apoptosis | Percentage of apoptotic cells (AnnexinV/PI) (ME-1 cells [3]; 3 different concentrations): clear dose-dependent increase in the percentage of apoptotic cells

Structure (SMILES): Fc1ccc2[nH]c(-c3ccccn3)nc2c1 [LD-1-31]
NMR with CBFβ + 250 uM compound, CSP G 112/K 98 (in words) (CBFβ; 250 uM compound): No CSP | Precipitation in the NMR sample (CBFβ): Strong precipitation

Structure (SMILES): CN(C)c1ccc2[nH]c(-c3ccccn3)nc2c1 [LD-2-63]
IC50 FRET (CBFβ-SMMHC:RD, 20 nM both) ([1]; Table 1 monomers): Interference with assay | NMR with CBFβ + 250 uM compound, CSP G 112 (CBFβ; 250 uM compound): 0.037 ppm | NMR with CBFβ + 250 uM compound, CSP K 98 (CBFβ; 250 uM compound): 0.023 ppm

Structure (SMILES): Cc1ccc2[nH]c(-c3ccccn3)nc2c1C [LD-1-23]
NMR with CBFβ + 250 uM compound, CSP G 112/K 98 (in words) (CBFβ; 250 uM compound): No CSP | Precipitation in the NMR sample (CBFβ): some precipitation
